Patent publication US20100056516A1 (priority 2006, published 2010)
Where a name gives a salt, the structure may show the parent alone.

How the values were obtained:
HIV integrase = HIV integrase (Human immunodeficiency virus type 1 group M subtype B, UniProt P04585); experiment: integrase strand transfer assay (STA); assay type: biochemical; settings: integrase strand transfer; read-out: IC50 in the STA assay
HXB2 virus = experiment: microbe, parasite or virus in culture; assay type: cell-based, HIV; settings: Human immunodeficiency virus 1, HXB2, HeLaP4-2, read-out: antiviral IC50 (SCIA-B)
Procedure: An assay for measuring the inhibition of acute HIV infection with HeLa P4-2 cells in a single cycle infectivity assay (SCIA-A) was conducted in accordance with Joyce, J. G., et al., J. Biol. Chem., 2002, 277, 45811, Hazuda, D. J. et al., Science, 2000, 287, 646, and Kimpton, J. et al, J. Virol. 1992, 66, 2232. Infectious virus was produced by transfecting 293T cells with HIV proviral DNA in which the integrase gene was derived from a IIIB isolate and the remainder of the HIV genome was derived from the NL4-3 isolate.
This assay B for measuring the inhibition of acute HIV infection with HeLa P4-2 cells in a single cycle infectivity assay (SCIA-B) is essentially the same as Assay A described above, except that HXB2 virus is employed instead of the IIIb isolate.

Row | Compound | IC50 (HIV integrase) | IC50 (HXB2 virus)
1 | CCOC(=O)c1c(O)c2cccnc2n(O)c1=O [Example 1, Ethyl 1,4-dihydroxy-2-oxo-1,2-dihydro-1,8-naphthyridine-3-carboxylate] | < 50 µM | < 100 µM
2 | O=c1cc(O)c2cccnc2n1O [Example 2, 1,4-Dihydroxy-1,8-naphthyridin-2(1B)-one] | < 50 µM | < 100 µM
3 | CCOC(=O)c1c(O)c2cc(Br)cnc2n(O)c1=O [Example 3, Ethyl 6-bromo-1,4-dihydroxy-2-oxo-1,2-dihydro-1,8-naphthyridine-3-carboxylate] | < 50 µM | < 100 µM
4 | CN(C)C(=O)c1c(O)c2cccnc2n(O)c1=O [Example 5, 1,4-Dihydroxy-N,N-dimethyl-2-oxo-1,2-dihydro-1,8-naphthyridine-3-carboxamide] | < 50 µM | < 100 µM
5 | O=C(NC1CC1)c1c(O)c2cccnc2n(O)c1=O [Example 6, N-Cyclopropyl-1,4-dihydroxy-2-oxo-1,2-dihydro-1,8-naphthyridine-3-carboxamide] | < 50 µM | < 100 µM
6 | CN(Cc1ccccc1)C(=O)c1c(O)c2cccnc2n(O)c1=O [Example 7, N-Benzyl-1,4-dihydroxy-N-methyl-2-oxo-1,2-dihydro-1,8-naphthyridine-3-carboxamide] | < 50 µM | < 100 µM
7 | O=C(c1c(O)c2cccnc2n(O)c1=O)N1CCCCC1 [Example 8, 1,4-Dihydroxy-3-(piperidin-1-ylcarbonyl)-1,8-naphthyridin-2(1H)-one] | < 50 µM | < 100 µM
8 | CN(C(=O)c1c(O)c2cccnc2n(O)c1=O)C1CCN(C(=O)OC(C)(C)C)CC1 [Example 9] | < 50 µM | < 100 µM
9 | CN(C(=O)c1c(O)c2cccnc2n(O)c1=O)C1CCN(C(=O)OC(C)(C)C)C1 (centres unmarked) [Example 10, tert-Butyl 3-[[(1,4-dihydroxy-2-oxo-1,2-dihydro-1,8-naphthyridin-3-yl)carbonyl](methyl)amino]pyrrolidine-1-carboxylate] | < 50 µM | < 100 µM
10 | COc1ccccc1NC(=O)c1c(O)c2cccnc2n(O)c1=O [Example 11, 1,4-Dihydroxy-N-(2-methoxyphenyl)-2-oxo-1,2-dihydro-1,8-naphthyridine-3-carboxamide] | < 50 µM | < 100 µM
11 | COc1cccc(NC(=O)c2c(O)c3cccnc3n(O)c2=O)c1 [Example 12, 1,4-Dihydroxy-N-(3-methoxyphenyl)-2-oxo-1,2-dihydro-1,8-naphthyridine-3-carboxamide] | < 50 µM | < 100 µM
12 | COc1ccc(NC(=O)c2c(O)c3cccnc3n(O)c2=O)cc1 [Example 13, 1,4-Dihydroxy-N-(4-methoxyphenyl)-2-oxo-1,2-dihydro-1,8-naphthyridine-3-carboxamide] | < 50 µM | < 100 µM
13 | COc1ccc(NC(=O)c2c(O)c3cccnc3n(O)c2=O)cn1 [Example 14, 1,4-Dihydroxy-N-(6-methoxypyridine-3-yl)-2-oxo-1,2-dihydro-1,8-naphthyridine-3-carboxamide] | < 50 µM | < 100 µM
14 | O=C(Nc1ccccc1OCc1ccccn1)c1c(O)c2cccnc2n(O)c1=O [Example 15, 1,4-Dihydroxy-2-oxo-N-[2-(pyridin-2-ylmethoxy)phenyl]-1,2-dihydro-1,8-naphthyridine-3-carboxamide, hydrochloric acid salt] | < 50 µM | > 100 µM
15 | O=C(Nc1cccnc1)c1c(O)c2cccnc2n(O)c1=O [Example 16, 1,4-Dihydroxy-2-oxo-N-pyridin-3-yl-1,2-dihydro-1,8-naphthyridine-3-carboxamide] | < 50 µM | < 100 µM
16 | O=C(NCc1ccc(F)cc1)c1c(O)c2cccnc2n(O)c1=O [Example 18, N-(4-Fluorobenzyl)-1,4-dihydroxy-2-oxo-1,2-dihydro-1,8-naphthyridine-3-carboxamide] | < 50 µM | < 100 µM
